Assay results: patent publication US20230321101A1, “METHODS AND USES OF HALOFUGINONE” (The Regents of the University of California, priority 2020, published 2023)
Like-named read-outs stand apart in the source and are kept apart here.

Legend:
SARS-CoV-2 = SARS-CoV-2 infected hamsters, oral halofuginone, lung pathology; assay type: in vivo; conditions: vs PBS
Text: FIG. 37A-FIG. 37F: Oral dosing of halofuginone to hamsters infected with SARS-CoV-2 improved hamster lung pathology relative to a control group of hamsters (PBS).

Vero E6 cells = experiment: Cell number of Vero E6 cells treated for 24 h; assay type: cell-based, African green monkey; conditions: Vero E6, 24 h
Description: FIG. 32A and FIG. 32B. […] A-B, Measurement of authentic SARS-CoV-2 infection and cell number in Vero E6 cells treated with (A) halofuginone (HF) or (B) the 2R,3S-(+) enantiomer for 24 h. Data shown as mean±S.D.

[1] = system: recombinant SARS-CoV-2 spike RBD protein binding to Calu-3 cells

O=C(CC1NCCCC1O)Cn1cnc2cc(Br)c(Cl)cc2c1=O (racemic) [halofuginone]
lung fibrosis, blood clotting, and inflammation (SARS-CoV-2; oral 1 mg/kg): reduced lung fibrosis, blood clotting, and inflammation
extended lung pathology (SARS-CoV-2; oral dosing): significant improvement
lung pathology severity (SARS-CoV-2; oral dosing): significant improvement
lung weight (SARS-CoV-2; oral dosing): significant improvement
macroscopic lung pathology (SARS-CoV-2; oral dosing): significant improvement
cell proliferation (cell number) (Vero E6 cells): inhibit SARS-CoV-2 infection and cell proliferation
effect on spike (RBD) protein binding [1]: dose-dependently inhibited spike protein binding
reduction in spike RBD binding [1]: 5 fold
effect on spike (RBD) protein binding ([1]; listed as Halofuginone): reduced spike RBD protein binding
